Experimental data published in patent publication US7550467B2 (Schering Corporation, priority 2004, dated 2009).

Target: T1, MCH receptor (Homo sapiens, UniProt Q99705)
T1 construct: expressed in transfected cells; host or cells: CHO cells
Assay: MCH Receptor Binding Assay ([125I]-MCH, SPA beads, membranes from CHO cells expressing the MCH receptor)
Method: MCH Receptor Binding Assay:
Membranes from CHO cells expressing the MCH receptor were prepared by lysing cells with 5 mM HEPES for 15 minutes at 4° C. Cell lysates were centrifuged ([…], 15 minutes) and the pellet was resuspended in 5 mM HEPES. For each 96-well plate (Microlite, Dynex Technologies), 1 mg of cell membranes were incubated with 10 mg of wheat germ agglutinin SPA beads (Amersham) for 5 minutes at 4° C. in a volume of 10 ml of binding buffer (25 mM HEPES, 10 mM MGCl2, 10 mM NaCl, 5 mM MnCl2, 0.1% BSA). The membrane/bead mixture was centrifuged (1500×g, 3.5 min), the supernatant was aspirated, and the pellet was resuspended in 10 ml binding buffer. The centrifugation, aspiration and resuspension were then repeated. The membrane/bead mixture (100 μl) was then added to 96-well plates containing 50 μl of 500 pM [^125I]-MCH (NEN) and […] of the appropriate concentration of compound (4X the desired final concentration). Nonspecific binding was determined by including 1 μM MCH in the binding reaction. The binding reaction was incubated at room temperature for 2 hours. Plates were then analyzed in a TOPCOUNT microplate scintillation counter (Packard). Data was analyzed and Ki values were determined using GraphPad Prism.

T1 sequence (Q99705 whole entry): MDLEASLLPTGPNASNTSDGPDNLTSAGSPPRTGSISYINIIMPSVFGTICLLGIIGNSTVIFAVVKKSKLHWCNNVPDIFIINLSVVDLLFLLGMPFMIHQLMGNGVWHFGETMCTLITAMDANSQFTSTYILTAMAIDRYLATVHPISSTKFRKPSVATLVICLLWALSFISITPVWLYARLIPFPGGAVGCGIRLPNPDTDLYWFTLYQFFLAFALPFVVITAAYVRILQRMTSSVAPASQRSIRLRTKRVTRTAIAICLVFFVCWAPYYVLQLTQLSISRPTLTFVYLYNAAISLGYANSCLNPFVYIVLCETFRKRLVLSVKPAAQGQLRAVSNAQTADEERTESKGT

Row | SMILES | Ki (Ki rating (class)) [nM] | Ki ([125I]-MCH) [nM]
1 | COc1cc2c(cc1OC)CC(N(CCCN1CCN(C)CC1)C(=O)Nc1cc(Cl)nc(Cl)c1)CC2 (centres unmarked) [Compound XX, 3-(2,6-dichloro-pyridin-4-yl)-1-(6,7-dimethoxy-1,2,3,4-tetrahydro-naphthalen-2-yl)-1-[3-(4-methyl-piperazin-1-yl)-propyl]-urea] | < 1000 | –
2 | C[C@@H]1CN(CCCN(C(=O)Nc2cc(Cl)nc(Cl)c2)C2COc3ccc(Br)cc3C2)[C@@H](C)CN1 (some centres unmarked) [Compound XI] | < 1000 | –
3 | C[C@@H]1CN(C(=O)OC(C)(C)C)[C@@H](C)CN1CCCN(C(=O)Nc1ccc(F)c(Cl)c1)C1COc2ccc(Br)cc2C1 (stereo partly drawn) [Compound XXV, (2S,5R)-4-{3-[1-(6-bromo-chroman-3-yl)-3-(3-chloro-4-fluoro-phenyl)-ureido]-propyl}-2,5-dimethyl-piperazine-1-carboxylic acid tert-butyl ester] | 1000 to 2000 | –
4 | CN1CCN(CCCN(C(=O)Nc2ccc(F)c(C(F)(F)F)c2)C2CCc3ccc(S(=O)(=O)N(C)C)cc3C2)CC1 (centres unmarked) [Compound XXXI, 7-{3-(4-fluoro-3-trifluoromethyl-phenyl)-1-[3-(4-methyl-piperazin-1-yl)-propyl]-ureido}-5,6,7,8-tetrahydro-naphthalene-2-sulfonic acid dimethylamide] | > 2000 | –
5 | CC(C)C(=O)Nc1ccc2c(c1)CC(N(CCCN1CCN(C)CC1)C(=O)Nc1ccc(F)c(Cl)c1)CC2 (centres unmarked) [Compound IV, N-(7-{3-(3-chloro-4-fluoro-phenyl)-1-[3-(4-methyl-piperazin-1-yl)-propyl]-ureido}-5,6,7,8-tetrahydro-naphthalen-2-yl)-isobuty ramide] | < 1000 | 61
6 | COc1ccc2c(c1)CC(N(CCCN1CCN(C)CC1)C(=O)Nc1ccc(F)c(Cl)c1)CC2 (centres unmarked) [Compound VII, 3-(3-chloro-4-fluoro-phenyl)-1-(7-methoxy-1,2,3,4-tetrahydro-naphthalen-2-yl)-1-[3-(4-methyl-piperazin-1-yl)-propyl]-urea] | < 1000 | 92
7 | CN1CCN(CCCN(C(=O)Nc2cc(Cl)nc(Cl)c2)C2CCc3ccc(S(=O)(=O)N(C)C)cc3C2)CC1 (centres unmarked) [Compound XXXII] | > 2000 | –
8 | CN1CCN(CCCN(C(=O)Nc2ccc(F)c(Cl)c2)C2CCc3ccc(NS(C)(=O)=O)cc3C2)CC1 (centres unmarked) [Compound VIII, N-(7-{3-(3-chloro-4-fluoro-phenyl)-1-[3-(4-methyl-piperazin-1-yl)-propyl]-ureido}-5,6,7,8-tetrahydro-naphthalen-2-yl)-methanesulfonamide] | < 1000 | 96
9 | CN1CCN(CCCN(C(=O)Nc2cc(Cl)nc(Cl)c2)C2CCc3ccc(S(C)(=O)=O)cc3C2)CC1 (centres unmarked) [Compound XIII, 3-(2,6-dichloro-pyridin-4-yl)-1-(7-methanesulfonyl-1,2,3,4-tetrahydro-naphthalen-2-yl)-1-[3-(4-methyl-piperazin-1-yl)-propyl]-urea] | < 1000 | –
10 | CN1CCN(CCCN(C(=O)Nc2ccc(F)c(Cl)c2)C2CCc3ccc(C#N)cc3C2)CC1 (centres unmarked) [Compound III, 3-(3-chloro-4-fluoro-phenyl)-1-(7-cyano-1,2,3,4-tetrahydro-naphthalen-2-yl)-1-[3-(4-methyl-piperazin-1-yl)-propyl]-urea] | < 1000 | 14
11 | CN1CCN(CCCN(C(=O)Nc2ccc(F)c(Cl)c2)C2CCc3ccc([N+](=O)[O-])cc3C2)CC1 (centres unmarked) [Compound II, 3-(3-chloro-4-fluoro-phenyl)-1-[3-(4-methyl-piperazin-1-yl)-propyl]-1-(7-nitro-1,2,3,4-tetrahydro-naphthalen-2-yl)-urea] | < 1000 | 11
12 | CN1CCN(CCCN(C(=O)Nc2cc(Cl)nc(Cl)c2)C2CCc3cc(C#N)ccc3C2)CC1 (centres unmarked) [Compound VI, 3-(2,6-dichloro-pyridin-4-yl)-1-(6-cyano-1,2,3,4-tetrahydro-naphthalen-2-yl)-1-[3-(4-methyl-piperazin-1-yl)-propyl]-urea] | < 1000 | 65
13 | CCNC(=O)Nc1ccc2c(c1)CC(N(CCCN1CCN(C)CC1)C(=O)Nc1ccc(F)c(Cl)c1)CC2 (centres unmarked) [Compound IX, 1-(7-{3-(3-chloro-4-fluoro-phenyl)-1-[3-(4-methyl-piperazin-1-yl)-propyl]-ureido}-5,6,7,8-tetrahydro-naphthalen-2-yl)-3-ethyl-urea] | < 1000 | 157
14 | COc1ccc2c(c1)CCC(N(CCCN1CCN(C)CC1)C(=O)Nc1ccc(F)c(Cl)c1)C2 (centres unmarked) [Compound XII, 3-(3-chloro-4-fluoro-phenyl)-1-(6-methoxy-1,2,3,4-tetrahydro-naphthalen-2-yl)-1-[3-(4-methyl-piperazin-1-yl)-propyl]-urea] | < 1000 | –
15 | CN1CCN(CCCN(C(=O)Nc2ccc(F)c(Cl)c2)C2Cc3ccccc3C2)CC1 [Compound XIX, 3-(3-chloro-4-fluoro-phenyl)-1-indan-2-yl-1-[3-(4-methyl-piperazin-1-yl)-propyl]-urea] | < 1000 | –
16 | CN1CCN(CCCN(C(=O)Nc2ccc(F)c(Cl)c2)C2CCc3cc(C#N)ccc3C2)CC1 (centres unmarked) [Compound XVI, 3-(3-chloro-4-fluoro-phenyl)-1-(6-cyano-1,2,3,4-tetrahydro-naphthalen-2-yl)-1-[3-(4-methyl-piperazin-1-yl)-propyl]-urea] | < 1000 | –

Row | SMILES | Ki (Ki rating (class)) [nM] | Ki ([125I]-MCH) [nM]
17 | C[C@@H]1CN(CCCN(C(=O)Nc2ccc(F)c(Cl)c2)C2COc3ccc(Br)cc3C2)[C@@H](C)CN1C(=O)OC(C)(C)C (some centres unmarked) [Compound XXVI] | 1000 to 2000 | –
18 | CNS(=O)(=O)c1ccc2c(c1)CC(N(CCCN1CCN(C)CC1)C(=O)Nc1ccc(F)c(C(F)(F)F)c1)CC2 (centres unmarked) [Compound XXVII, 7-{3-(4-fluoro-3-trifluoromethyl-phenyl)-1-[3-(4-methyl-piperazin-1-yl)-propyl]-ureido}-5,6,7,8-tetrahydro-naphthalene-2-sulfonic acid methylamide] | 1000 to 2000 | –
19 | C[C@@H]1CN[C@@H](C)CN1CCCN(C(=O)Nc1ccc(F)c(Cl)c1)C1COc2ccc(Br)cc2C1 (stereo partly drawn) [Compound XVIII, (2R,5S)-1-(6-bromo-chroman-3-yl)-3-(3-chloro-4-fluoro-phenyl)-1-[3-(2,5-dimethyi-piperazin-1-yl)-propyl]-urea] | < 1000 | –
20 | CN1CCN(CCCN(C(=O)Nc2ccc(F)c(Cl)c2)C2CCc3ccc(S(C)(=O)=O)cc3C2)CC1 (centres unmarked) | 1000 to 2000 | –
21 | C[C@@H]1CN(C(=O)OC(C)(C)C)[C@@H](C)CN1CCCN(C(=O)Nc1cc(Cl)nc(Cl)c1)C1COc2ccc(Br)cc2C1 (some centres unmarked) [Compound XV] | < 1000 | –
22 | CN1CCN(CCCN(C(=O)Nc2ccc(F)c(Cl)c2)C2CCc3ccc(S(=O)(=O)N(C)C)cc3C2)CC1 (centres unmarked) [Compound XXX, 7-{3-(3-chloro-4-fluoro-phenyl)-1-[3-(4-methyl-piperazin-1-yl).-propyl]-ureido}-5,6,7,8-tetrahydro-naphthalene-2-sulfonic acid dimethylamide] | > 2000 | –
23 | C[C@@H]1CN(CCCN(C(=O)Nc2ccc(F)c(Cl)c2)C2COc3ccc(Br)cc3C2)[C@@H](C)CN1 (some centres unmarked) [Compound XXI] | < 1000 | –
24 | C[C@@H]1CN(CCCN(C(=O)Nc2cc(Cl)nc(Cl)c2)C2COc3ccc(Br)cc3C2)[C@@H](C)CN1C(=O)OC(C)(C)C (some centres unmarked) [XXIII] | 1000 to 2000 | –
25 | CN1CCN(CCCN(C(=O)Nc2ccc(F)c(Cl)c2)C2CCc3cc(Br)ccc3C2)CC1 (centres unmarked) [Compound X, 1-(6-bromo-1,2,3,4-tetrahydro-naphthalen-2-yl)-3-(3-chloro-4-fluoro-phenyl)-1-[3-(4-methyl-piperazin-1-yl)-propyl]-urea] | < 1000 | 178
26 | COc1cc2c(cc1OC)CC(N(CCCN1CCN(C)CC1)C(=O)Nc1ccc(F)c(Cl)c1)CC2 (centres unmarked) [Compound XXVIII, 3-(3-chloro-4-fluoro-phenyl)-1-(6,7-dimethoxy-1,2,3,4-tetrahydro-naphthalen-2-yl)-1-[3-(4-methyl-piperazin-1-yl)-propyl]-urea] | > 2000 | –
27 | CN1CCN(CCCN(C(=O)Nc2ccc(F)c(Cl)c2)C2CCc3ccccc3C2)CC1 (centres unmarked) [Compound XVII, 3-(3-chloro-4-fluoro-phenyl)-1-[3-(4-methyl-piperazin-1-yl)-propyl]-1-(1,2,3,4-tetrahydro-naphthalen-2-yl)-urea] | < 1000 | –
28 | C[C@@H]1CN[C@@H](C)CN1CCCN(C(=O)Nc1cc(Cl)nc(Cl)c1)C1COc2ccc(Br)cc2C1 (some centres unmarked) [Compound V] | < 1000 | 63
29 | CN1CCN(CCCN(C(=O)Nc2ccc(F)c(Cl)c2)C2CCc3ccc(N)cc3C2)CC1 (centres unmarked) | < 1000 | –
30 | CC(=O)Nc1ccc2c(c1)CC(N(CCCN1CCN(C)CC1)C(=O)Nc1ccc(F)c(Cl)c1)CC2 (centres unmarked) [Compound I, N-(7-{3-(3-chloro-4-fluoro-phenyl)-1-[3-(4methyl-piperazin-1-yl)-propyl]-ureido}-5,6,7,8-tetrahydro-naphthalen-2yl)-acetamide] | < 1000 | 6
31 | CNS(=O)(=O)c1ccc2c(c1)CC(N(CCCN1CCN(C)CC1)C(=O)Nc1cc(Cl)nc(Cl)c1)CC2 (centres unmarked) [Compound XXII, 7-{3-(2,6-dichloro-pyridin-4-yl)-1-[3-(4-methyl-piperazin-1-yl)-propyl]-ureido}-5,6,7,8-tetrahydro-naphthalene-2-sulfonic acid methylamide] | < 1000 | –
